One assay concerns the target CMV-polymerase (Human cytomegalovirus (strain AD169) (HHV-5) (Human herpesvirus 5), UniProt P08546). The assay is described as follows: biochemical. Particulars: read-out: CMV-polymerase Biochemical IC50.
The subject of another assay is CMV. The assay is described as follows: microbe, parasite or virus in culture. The assay is classed as cell-based.
Where [1] appears, read: Human betaherpesvirus 5, 72 h, read-out: CMV-Luc Cellular EC50, NN-NHDF cells, MOI 1, 72 hrs.
[2] abbreviates: NN-NHDF cells, MOI 1, 72 hrs, read-out: CMV-Luc Cellular EC50.

Like-named read-outs stand apart in the source and are kept apart here.

The IC50 is the concentration at which inhibition is half-maximal. Take `CC1Cc2c(C(=O)NCc3ccc(C#N)cc3)nn(C)c2C(=O)N1CC1(S(C)(=O)=O)CC1` (single isomer, unassigned) [Example 41, (R)- or (S)-N-(4-cyanobenzyl)-1,5-dimethyl-6-((1-(methylsulfonyl)cyclopropyl)methyl)-7-oxo-4,5,6,7-tetrahydro-1H-pyrazolo[3,4-c]pyridine-3-carboxamide]: the IC50 on CMV-polymerase was 9770 nM. The term EC50 denotes the concentration at which the effect is half-maximal. `CC(N)COCC(C)(C)S(=O)(=O)C1(CN2CCc3c(C(=O)NCc4ccc(Cl)cc4)nn(C)c3C2=O)CC1` (single isomer, unassigned) [Example 97, (R)- or (S)-6-((1-((1-(2-Aminopropoxy)-2-methylpropan-2-yl)sulfonyl)cyclopropyl)methyl)-N-(4-chlorobenzyl)-1-methyl-7-oxo-4,5,6,7-tetrahydro-1H-pyrazolo[3,4-c]pyridine-3-carboxamide]: the EC50 in the assay on CMV (setting [1]) is 8 nM.

Regarding `CC(N)COCC(C)(C)S(=O)(=O)C1(CN2CCc3c(C(=O)NCc4ccc(Cl)cc4)nn(C)c3C2=O)CC1` (single isomer, unassigned) [Example 98, (R)- or (S)-6-((1-((1-(2-Aminopropoxy)-2-methylpropan-2-yl)sulfonyl)cyclopropyl)methyl)-N-(4-chlorobenzyl)-1-methyl-7-oxo-4,5,6,7-tetrahydro-1H-pyrazolo[3,4-c]pyridine-3-carboxamide], the concentration giving a half-maximal response (EC50) in the assay on CMV (read-out: CMV-Luc Cellular EC50, NN-NHDF cells, MOI 1, 72 hrs) was 8 nM. In the case of `CC(N)COCC(C)(C)S(=O)(=O)C1(CN2CCc3c(C(=O)NCc4ccc(C#N)cc4)nn(C)c3C2=O)CC1` (single isomer, unassigned) [Example 99, (R)- or (S)-6-((1-((1-(2-Aminopropoxy)-2-methylpropan-2-yl)sulfonyl)cyclopropyl)methyl)-N-(4-cyanobenzyl)-1-methyl-7-oxo-4,5,6,7-tetrahydro-1H-pyrazolo[3,4-c]pyridine-3-carboxamide], the EC50 with CMV (setting [1]) was 14 nM. `Cn1nc(C(=O)NCc2ccc(C#N)cc2)c2c1C(=O)N(CC1(S(=O)(=O)N3CCC(C)(O)C3)CC1)CC2` (single isomer, unassigned) [Example 130, (R)- or (S)-N-(4-Cyanobenzyl)-6-((1-((3-hydroxy-3-methylpyrrolidin-1-yl)sulfonyl)cyclopropyl)methyl)-1-methyl-7-oxo-4,5,6,7-tetrahydro-1H-pyrazolo[3,4-c]pyridine-3-carboxamide]: the half-inhibitory concentration (IC50) at CMV-polymerase amounted to 7 nM. Also, the EC50 with CMV (setting [1]) was found to be 163 nM.

Regarding `Cn1nc(C(=O)NCc2ccc(C#N)cc2)c2c1C(=O)N(CC1(S(=O)(=O)N3CCC(C)(O)C3)CC1)CC2` (single isomer, unassigned) [Example 131, (R)- or (S)-N-(4-Cyanobenzyl)-6-((1-((3-hydroxy-3-methylpyrrolidin-1-yl)sulfonyl)cyclopropyl)methyl)-1-methyl-7-oxo-4,5,6,7-tetrahydro-1H-pyrazolo[3,4-c]pyridine-3-carboxamide], at CMV-polymerase, the half-maximal inhibitory concentration (IC50) was 16 nM. As for `Cn1nc(C(=O)NCc2ccc(C#N)cc2)c2c1C(=O)N(CC1(S(=O)(=O)C3CCOC3)CC1)CC2` (single isomer, unassigned) [Example 170, (R)- or (S)-N-(4-Cyanobenzyl)-1-methyl-7-oxo-6-((1-((tetrahydrofuran-3-yl)sulfonyl)cyclopropyl)methyl)-4,5,6,7-tetrahydro-1H-pyrazolo[3,4-c]pyridine-3-carboxamide], the EC50 in the assay with CMV (setting [1]) worked out at 124 nM. In the case of `Cn1nc(C(=O)NCc2ccc(C#N)cc2)c2c1C(=O)N(CC1(S(=O)(=O)C(C)(CN)CO)CC1)CC2` (single isomer, unassigned) [Example 184, (R)- or (S)-6-((1-((1-Amino-3-hydroxy-2-methylpropan-2-yl)sulfonyl)cyclopropyl)methyl)-N-(4-cyanobenzyl)-1-methyl-7-oxo-4,5,6,7-tetrahydro-1H-pyrazolo[3,4-c]pyridine-3-carboxamide], in the assay on CMV (setting [1]), the EC50 amounted to 165 nM. Take `Cn1nc(C(=O)NCc2ccc(C#N)cc2)c2c1C(=O)N(CC1(S(=O)(=O)C(C)(C)C(O)CN)CC1)CC2` (single isomer, unassigned) [Example 199, (R)- or (S)-6-((1-((4-Amino-3-hydroxy-2-methylbutan-2-yl)sulfonyl)cyclopropyl)methyl)-N-(4-cyanobenzyl)-1-methyl-7-oxo-4,5,6,7-tetrahydro-1H-pyrazolo[3,4-c]pyridine-3-carboxamide]: the EC50 with CMV (setting [1]) turned out to be 19 nM; in the assay on CMV (Human betaherpesvirus 5, read-out: Cellular activity against CMV (EC50), Table 18) it was 18 nM. Regarding `CNCC(O)C(C)(C)S(=O)(=O)C1(CN2CCc3c(C(=O)NCc4ccc(C#N)cc4)nn(C)c3C2=O)CC1` (single isomer, unassigned) [Example 202, (R)- or (S)-N-(4-Cyanobenzyl)-6-((1-((3-hydroxy-2-methyl-4-(methylamino)butan-2-yl)sulfonyl)cyclopropyl)methyl)-1-methyl-7-oxo-4,5,6,7-tetrahydro-1 H-pyrazolo[3,4-c]pyridine-3-carboxamide], the EC50 with CMV (setting [1]) was 30 nM. On the same count and under the same terms, the value for `CNCC(O)C(C)(C)S(=O)(=O)C1(CN2CCc3c(C(=O)NCc4ccc(Cl)cc4)nn(C)c3C2=O)CC1` (single isomer, unassigned) [Example 204, (R)- or (S)-N-(4-Chlorobenzyl)-6-((1-((3-hydroxy-2-methyl-4-(methylamino)butan-2-yl)sulfonyl)cyclopropyl)methyl)-1-methyl-7-oxo-4,5,6,7-tetrahydro-1 H-pyrazolo[3,4-c]pyridine-3-carboxamide] was 11 nM; that for `CN(C)CC(O)C(C)(C)S(=O)(=O)C1(CN2CCc3c(C(=O)NCc4ccc(Cl)cc4)nn(C)c3C2=O)CC1` (single isomer, unassigned) [Example 206, (R)- or (S)-N-(4-Chlorobenzyl)-6-((1-((4-(dimethylamino)-3-hydroxy-2-methylbutan-2-yl)sulfonyl)cyclopropyl)methyl)-1-methyl-7-oxo-4,5,6,7-tetrahydro-1H-pyrazolo[3,4-c]pyridine-3-carboxamide] was 71 nM.

On to `Cn1nc(C(=O)NCc2ccc(F)cc2)c2c1C(=O)N(CC1(S(=O)(=O)C3CC3)CC1)CC2` [Example 5, 6-((1-(Cyclopropylsulfonyl)cyclopropyl)methyl)-N-(4-fluorobenzyl)-1-methyl-7-oxo-4,5,6,7-tetrahydro-1H-pyrazolo[3,4-c]pyridine-3-carboxamide], for which the IC50 at CMV-polymerase turned out to be 30 nM. The EC50 with CMV (setting [1]) stood at 284 nM. For `CN(Cc1ccc(C#N)cc1)C(=O)c1nn(C)c2c1CCN(CC1(S(=O)(=O)C3CC3)CC1)C2=O` [Example 6, N-(4-Cyanobenzyl)-6-((1-(cyclopropylsulfonyl)cyclopropyl)methyl)-N,1-dimethyl-7-oxo-4,5,6,7-tetrahydro-1H-pyrazolo[3,4-c]pyridine-3-carboxamide], on CMV-polymerase, the IC50 was found to be 30 nM. Also, in the assay on CMV (setting [1]), the EC50 is 770 nM. With `Cc1ccc(CNC(=O)c2nn(C)c3c2CCN(CC2(S(=O)(=O)C4CC4)CC2)C3=O)cc1` [Example 8, 6-((1-(Cyclopropylsulfonyl)cyclopropyl)methyl)-1-methyl-N-(4-methylbenzyl)-7-oxo-4,5,6,7-tetrahydro-1H-pyrazolo[3,4-c]pyridine-3-carboxamide], on CMV-polymerase, the IC50 came to 35 nM. In addition, the concentration for a half-maximal effect (EC50) in the assay on CMV (setting [1]) turned out to be 339 nM. On the same counts, the results for `Cn1nc(C(=O)NCc2ccc(C#N)c(F)c2)c2c1C(=O)N(CC1(S(=O)(=O)C3CC3)CC1)CC2` [Example 9, N-(4-Cyano-3-fluorobenzyl)-6-((1-(cyclopropylsulfonyl)cyclopropyl)methyl)-1-methyl-7-oxo-4,5,6,7-tetrahydro-1H-pyrazolo[3,4-c]pyridine-3-carboxamide] are 1 nM and 31 nM.

Take `Cn1nc(C(=O)NCc2ccc(Cl)s2)c2c1C(=O)N(CC1(S(=O)(=O)C3CC3)CC1)CC2` [Example 10, N-((5-Chlorothiophen-2-yl)methyl)-6-((1-(cyclopropylsulfonyl)cyclopropyl)methyl)-1-methyl-7-oxo-4,5,6,7-tetrahydro-1H-pyrazolo[3,4-c]pyridine-3-carboxamide]: the concentration for half-maximal inhibition (IC50) on CMV-polymerase is 26 nM. Further, the EC50 with CMV (setting [1]) amounted to 259 nM. `Cn1nc(C(=O)OCc2ccc(C#N)cc2)c2c1C(=O)N(CC1(S(=O)(=O)C3CC3)CC1)CC2` [Example 24, 4-cyanobenzyl 6-((1-(cyclopropylsulfonyl)cyclopropyl)methyl)-1-methyl-7-oxo-4,5,6,7-tetrahydro-1H-pyrazolo[3,4-c]pyridine-3-carboxylate]: the EC50 in the assay on CMV (setting [1]) was determined as 197 nM. In the case of `N#Cc1ccc(CNC(=O)c2n[nH]c3c2CCN(CC2(S(=O)(=O)C4CC4)CC2)C3=O)cc1` [Example 45, N-(4-Cyanobenzyl)-6-((1-(cyclopropylsulfonyl)cyclopropyl)methyl)-7-oxo-4,5,6,7-tetrahydro-1H-pyrazolo[3,4-c]pyridine-3-carboxamide], in the assay with CMV (setting [2]), the EC50 worked out at 146 nM.

In the case of `Cn1nc(C(=O)NCc2ccc(C#N)cc2)c2c1C(=O)N(CC1(S(=O)(=O)C(C)(C)COCCO)CC1)CC2` [Example 87, N-(4-Cyanobenzyl)-6-((1-((1-(2-hydroxyethoxy)-2-methylpropan-2-yl)sulfonyl)cyclopropyl)methyl)-1-methyl-7-oxo-4,5,6,7-tetrahydro-1H-pyrazolo[3,4-c]pyridine-3-carboxamide], the 50% effective concentration (EC50) in the assay on CMV (setting [2]) turned out to be 44 nM. On to `CN(C(C)(CO)CO)S(=O)(=O)C1(CN2CCc3c(C(=O)NCc4ccc(Cl)cc4)nn(C)c3C2=O)CC1` [Example 154, N-(4-chlorobenzyl)-6-((1-(N-(1,3-dihydroxy-2-methylpropan-2-yl)-N-methylsulfamoyl)cyclopropyl)methyl)-1-methyl-7-oxo-4,5,6,7-tetrahydro-1H-pyrazolo[3,4-c]pyridine-3-carboxamide], for which the EC50 with CMV (setting [1]) was determined as 83 nM. Consider `Cn1nc(C(=O)NCc2ccc(Cl)cc2)c2c1C(=O)N(CC1(S(=O)(=O)C(C)(CN)CO)CC1)CC2` (centres unmarked) [Example 186, 6-((1-((1-Amino-3-hydroxy-2-methylpropan-2-yl)sulfonyl)cyclopropyl)methyl)-N-(4-chlorobenzyl)-1-methyl-7-oxo-4,5,6,7-tetrahydro-1H-pyrazolo[3,4-c]pyridine-3-carboxamide], for which the concentration giving a half-maximal response (EC50) in the assay on CMV (Human betaherpesvirus 5, 72 h, NN-NHDF cells, MOI 1, 72 hrs, read-out: CMV-Luc Cellular EC50) was determined as 90 nM.

The values above are taken from patent publication US12338220B2, “Antiviral pyrazolopiridinone compounds” (Novartis AG, priority 2019, dated 2025).
